{"source": "paper PMC7058083", "about": "“Structural basis of ligand binding modes at the human formyl peptide receptor 2” (Nature Communications, 2020)", "assay_in_all_cases": "Saturation binding of WK(FITC)YMVm, flow cytometry on HEK293F cells", "key": {"[1]": {"target": "T1, wild-type (WT) and mutant FPR2 (Homo sapiens, UniProt P25090, L164W)", "T1 construct": "expressed in transfected cells; host or cells: HEK293F", "T1 sequence (P25090 whole entry L164W)": "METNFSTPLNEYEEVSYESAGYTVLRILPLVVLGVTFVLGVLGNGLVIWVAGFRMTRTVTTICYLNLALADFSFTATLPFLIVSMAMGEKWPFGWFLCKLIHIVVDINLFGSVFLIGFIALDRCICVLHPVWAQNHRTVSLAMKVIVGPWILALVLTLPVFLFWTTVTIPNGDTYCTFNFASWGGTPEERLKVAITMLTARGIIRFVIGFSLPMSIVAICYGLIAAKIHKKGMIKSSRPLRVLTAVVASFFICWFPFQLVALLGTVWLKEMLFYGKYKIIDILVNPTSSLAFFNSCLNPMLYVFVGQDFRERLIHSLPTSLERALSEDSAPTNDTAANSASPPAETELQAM", "conditions": "mutation L164W", "experimental": "(§1) Flag-tagged wild-type and mutant FPR2s were cloned into the pTT5 vector and expressed in HEK293F cells. The cells were harvested, and washed with Hanks’ Balanced Salt Solution (HBSS) buffer supplemented with 0.5% bovine serum albumin and 20 mM HEPES, pH 7.4. The cells were then resuspended in the same buffer to the final concentration of 1 × 10^6 cells per ml. The cell-surface expression was measured as mentioned above. […] Mean fluorescent intensity of each well was then read by a FCM (flow cytometry) reader (Millipore). […] For competitive binding of fMLFK, cells were plated in 96-well plates (100,000 cells per well), and incubated with WK(FITC)YMVm at 4 °C for 1 h. The following concentrations of WK(FITC)YMVm were used: 10 nM (wild type, L81^2.60F, E89G, and V105^3.32A), 30 nM (D281^7.32G), 40 nM (H102^3.29F, V160^4.60A, L268^ECL3A, N285^7.36A, and F292^7.43A), and 100 nM (L164^4.64A and T177A). Then increasing concentrations of fMLFK (100 nM–1 mM) were added, and incubated for another 1 h on ice. Mean fluorescent intensity values were measured by flow cytometry. Data were analyzed using Prism 7.0."}, "[2]": {"target": "T2, wild-type (WT) and mutant FPR2 (Homo sapiens, UniProt P25090, T177A)", "T2 construct": "expressed in transfected cells; host or cells: HEK293F", "T2 sequence (P25090 1-351 T177A)": "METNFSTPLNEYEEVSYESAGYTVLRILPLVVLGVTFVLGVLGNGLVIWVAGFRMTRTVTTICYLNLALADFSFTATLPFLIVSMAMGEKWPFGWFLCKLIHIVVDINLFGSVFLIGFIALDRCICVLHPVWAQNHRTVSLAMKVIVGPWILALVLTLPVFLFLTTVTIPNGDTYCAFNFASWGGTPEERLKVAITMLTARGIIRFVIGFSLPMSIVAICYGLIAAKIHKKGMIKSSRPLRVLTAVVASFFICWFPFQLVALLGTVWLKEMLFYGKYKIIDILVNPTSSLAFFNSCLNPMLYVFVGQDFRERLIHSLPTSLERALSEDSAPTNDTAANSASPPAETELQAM", "conditions": "FPR2 T177A", "experimental": "as §1"}, "[3]": {"target": "T3, wild-type (WT) and mutant FPR2 (Homo sapiens, UniProt P25090, L198A)", "T3 construct": "expressed in transfected cells; host or cells: HEK293F", "T3 sequence (P25090 whole entry L198A)": "as the sequence (P25090 whole entry L164W) above, with W164L, L198A counted along it", "conditions": "FPR2 L198A", "experimental": "as §1"}, "[4]": {"target": "T4, wild-type (WT) and mutant FPR2 (Homo sapiens, UniProt P25090, V105A)", "T4 construct": "expressed in transfected cells; host or cells: HEK293F", "T4 sequence (P25090 1-351 V105A)": "T2 sequence (P25090 1-351 T177A) with V105A, A177T", "conditions": "FPR2 V105A", "experimental": "as §1"}, "[5]": {"target": "T5, wild-type (WT) and mutant FPR2 (Homo sapiens, UniProt P25090, R201F)", "T5 construct": "expressed in transfected cells; host or cells: HEK293F", "T5 sequence (P25090 whole entry R201F)": "as the sequence (P25090 whole entry L164W) above, with W164L, R201F counted along it", "conditions": "mutation R201F", "experimental": "as §1"}, "[6]": {"target": "T6, wild-type (WT) and mutant FPR2 (Homo sapiens, UniProt P25090, F257Y)", "T6 construct": "expressed in transfected cells; host or cells: HEK293F", "T6 sequence (P25090 whole entry F257Y)": "as the sequence (P25090 whole entry L164W) above, with W164L, F257Y counted along it", "conditions": "FPR2 F257Y", "experimental": "as §1"}, "[7]": {"target": "T7, wild-type (WT) and mutant FPR2 (Homo sapiens, UniProt P25090, R205A)", "T7 construct": "expressed in transfected cells; host or cells: HEK293F", "T7 sequence (P25090 whole entry R205A)": "as the sequence (P25090 whole entry L164W) above, with W164L, R205A counted along it", "conditions": "mutant R205A", "experimental": "as §1"}, "[8]": {"target": "T8, wild-type (WT) and mutant FPR2 (Homo sapiens, UniProt P25090, H102F)", "T8 construct": "expressed in transfected cells; host or cells: HEK293F", "T8 sequence (P25090 1-351 H102F)": "T2 sequence (P25090 1-351 T177A) with H102F, A177T", "conditions": "FPR2 H102F", "experimental": "as §1"}, "[9]": {"target": "T9, wild-type (WT) and mutant FPR2 (Homo sapiens, UniProt P25090, D281A)", "T9 construct": "expressed in transfected cells; host or cells: HEK293F", "T9 sequence (P25090 whole entry D281A)": "as the sequence (P25090 whole entry L164W) above, with W164L, D281A counted along it", "conditions": "FPR2 D281A", "experimental": "as §1"}, "[10]": {"target": "T10, wild-type (WT) and mutant FPR2 (Homo sapiens, UniProt P25090, E89G)", "T10 construct": "expressed in transfected cells; host or cells: HEK293F", "T10 sequence (P25090 1-351 E89G)": "T2 sequence (P25090 1-351 T177A) with E89G, A177T", "conditions": "FPR2 E89G", "experimental": "as §1"}, "[11]": {"target": "T11, wild-type (WT) and mutant FPR2 (Homo sapiens, UniProt P25090, F5A)", "T11 construct": "expressed in transfected cells; host or cells: HEK293F", "T11 sequence (P25090 whole entry F5A)": "as the sequence (P25090 whole entry L164W) above, with F5A, W164L counted along it", "conditions": "FPR2 F5A", "experimental": "as §1"}}, "note": "Changes are numbered by the printed parent chain.", "data": [{"smiles": "CSCC[C@H](NC(=O)[C@H](Cc1ccc(O)cc1)NC(=O)[C@H](CCCCNC(=S)Nc1ccc2c(c1)C(=O)OC21c2ccc(O)cc2Oc2cc(O)ccc21)NC(=O)[C@@H](N)Cc1c[nH]c2ccccc12)C(=O)N[C@H](C(=O)N[C@H](CCSC)C(N)=O)C(C)C", "note": "[WK(FITC)YMVm]", "values": [{"measurement": "WK(FITC)YMVm binding", "setting": "[1]", "result": "severely impaired"}, {"measurement": "Span (% of WT), saturation binding", "setting": "[2]", "result": "66 ± 5 % of WT"}, {"measurement": "Kd", "setting": "[2]; mean ± s.e.m., n=3, SEM", "result": "109 ± 34", "unit": "nM"}, {"measurement": "Span (% of WT), saturation binding", "setting": "[3]", "result": "84 ± 14 % of WT"}, {"measurement": "Kd", "setting": "[3]; mean ± s.e.m., n=3, SEM", "result": "41.5 ± 10.0", "unit": "nM"}, {"measurement": "Span (% of WT), saturation binding", "setting": "[4]", "result": "68 ± 15 % of WT"}, {"measurement": "Kd", "setting": "[4]; mean ± s.e.m., n=4, SEM", "result": "25.7 ± 7.5", "unit": "nM"}, {"measurement": "WK(FITC)YMVm binding", "setting": "[5]", "result": "substantially reduced"}, {"measurement": "Span (% of WT), saturation binding", "setting": "[6]", "result": "57 ± 6 % of WT"}, {"measurement": "Kd", "setting": "[6]; mean ± s.e.m., n=3, SEM", "result": "154 ± 48", "unit": "nM"}, {"measurement": "WK(FITC)YMVm binding", "setting": "[7]", "result": "complete loss"}, {"measurement": "Span (% of WT), saturation binding", "setting": "[8]", "result": "44 ± 4 % of WT"}, {"measurement": "Kd", "setting": "[8]; mean ± s.e.m., n=3, SEM", "result": "43.5 ± 16.0", "unit": "nM"}, {"measurement": "Span (% of WT), saturation binding", "setting": "[9]", "result": "42 ± 8 % of WT"}, {"measurement": "Kd", "setting": "[9]; mean ± s.e.m., n=3, SEM", "result": "48.6 ± 17.6", "unit": "nM"}, {"measurement": "Span (% of WT), saturation binding", "setting": "[10]", "result": "134 ± 7 % of WT"}, {"measurement": "Kd", "setting": "[10]; mean ± s.e.m., n=3, SEM", "result": "29.3 ± 6.0", "unit": "nM"}, {"measurement": "Span (% of WT), saturation binding", "setting": "[11]", "result": "62 ± 7 % of WT"}, {"measurement": "Kd", "setting": "[11]; mean ± s.e.m., n=3, SEM", "result": "15.1 ± 7.4", "unit": "nM"}]}]}
